Measured values taken from the supplement of paper PMC10307832.

How the values were obtained:
Assay in all cases: relative viability (nuclei count vs DMSO), 5 days (fraction); higher = more cells survive
Bleomycin + Bortezomib = compound: CC1=C(N=C(N=C1N)[C@H](CC(=O)N)NC[C@@H](C(=O)N)N)C(=O)N[C@@H]([C@H](C2=CN=CN2)OC3C(C(C(C(O3)CO)O)O)OC4C(C(C(C(O4)CO)O)OC(=O)N)O)C(=O)N[C@H](C)[C@H]([C@H](C)C(=O)N[C@@H]([C@@H](C)O)C(=O)NCCC5=NC(=CS5)C6=NC(=CS6)C(=O)NCCC[S+](C)C)O [Bleomycin] + CC(C)C[C@H](NC(=O)[C@H](Cc1ccccc1)NC(=O)c1cnccn1)B(O)O [Bortezomib] (partner 0.002 µM); settings: main component drawn
Method in brief: (§1)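 Relative viability equals treated-well nuclei counts divided by vehicle-well nuclei counts. Counts came from 4× images of lung cancer cell lines grown in 1536-well plates for 5 days after pin-tool dosing on the day after seeding. Dosing used one drug alone or a fixed anchor-drug dose plus five library-drug doses (not always all listed) in √10 steps, and values are medians of duplicate plates.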

Bleomycin + Linsitinib = compound: CC1=C(N=C(N=C1N)[C@H](CC(=O)N)NC[C@@H](C(=O)N)N)C(=O)N[C@@H]([C@H](C2=CN=CN2)OC3C(C(C(C(O3)CO)O)O)OC4C(C(C(C(O4)CO)O)OC(=O)N)O)C(=O)N[C@H](C)[C@H]([C@H](C)C(=O)N[C@@H]([C@@H](C)O)C(=O)NCCC5=NC(=CS5)C6=NC(=CS6)C(=O)NCCC[S+](C)C)O [Bleomycin] + C[C@]1(O)C[C@@H](c2nc(-c3ccc4ccc(-c5ccccc5)nc4c3)c3c(N)nccn32)C1 [Linsitinib] (partner 1 µM); settings: main component drawn
Method in brief: as §1

Etoposide + Alpelisib = compound: COc1cc([C@@H]2c3cc4c(cc3[C@@H](O[C@@H]3O[C@@H]5CO[C@@H](C)O[C@H]5[C@H](O)[C@H]3O)[C@H]3COC(=O)[C@H]23)OCO4)cc(OC)c1O [Etoposide] + Cc1nc(NC(=O)N2CCC[C@H]2C(N)=O)sc1-c1ccnc(C(C)(C)C(F)(F)F)c1 [Alpelisib] (partner 2 µM)
Method in brief: as §1

Bleomycin + Navitoclax = compound: CC1=C(N=C(N=C1N)[C@H](CC(=O)N)NC[C@@H](C(=O)N)N)C(=O)N[C@@H]([C@H](C2=CN=CN2)OC3C(C(C(C(O3)CO)O)O)OC4C(C(C(C(O4)CO)O)OC(=O)N)O)C(=O)N[C@H](C)[C@H]([C@H](C)C(=O)N[C@@H]([C@@H](C)O)C(=O)NCCC5=NC(=CS5)C6=NC(=CS6)C(=O)NCCC[S+](C)C)O [Bleomycin] + CC1(C)CCC(c2ccc(Cl)cc2)=C(CN2CCN(c3ccc(C(=O)NS(=O)(=O)c4ccc(N[C@H](CCN5CCOCC5)CSc5ccccc5)c(S(=O)(=O)C(F)(F)F)c4)cc3)CC2)C1 [Navitoclax] (partner 0.5 µM); settings: main component drawn
Method in brief: as §1

With UMC-11 as the cell line, how does the relative viability (Bleomycin + Bortezomib; first compound 0.01 µM) read?
The relative viability was 0.626.

And the relative viability (Bleomycin + Bortezomib; first compound 0.03162 µM)?
Its relative viability is 0.587.

What about the relative viability (Bleomycin + Bortezomib; first compound 0.1 µM) of the same cell line?
The relative viability was 0.576.

What about the relative viability (Bleomycin + Bortezomib; first compound 0.3162 µM) of the same cell line?
The relative viability was 0.477.

And the relative viability (Bleomycin + Bortezomib; first compound 1 µM)?
The relative viability was 0.304.

What about the relative viability (Bleomycin + Linsitinib; first compound 0.01 µM) of the same cell line?
The relative viability was 0.975.

And the relative viability (Bleomycin + Linsitinib; first compound 0.03162 µM)?
Its relative viability is 0.91.

And the relative viability (Bleomycin + Linsitinib; first compound 0.1 µM)?
The relative viability was 0.863.

What about the relative viability (Bleomycin + Linsitinib; first compound 0.3162 µM) of the same cell line?
Its relative viability is 0.647.

And the relative viability (Bleomycin + Linsitinib; first compound 1 µM)?
Its relative viability is 0.498.

And the relative viability (Etoposide + Alpelisib; first compound 0.01 µM)?
Its relative viability is 0.943.

And the relative viability (Etoposide + Alpelisib; first compound 0.03162 µM)?
The relative viability was 1.11.

What about the relative viability (Etoposide + Alpelisib; first compound 0.3162 µM) of the same cell line?
The relative viability was 0.352.

And the relative viability (Etoposide + Alpelisib; first compound 1 µM)?
Its relative viability is 0.222.

And the relative viability (Bleomycin + Navitoclax; first compound 0.01 µM)?
Its relative viability is 0.376.

And the relative viability (Bleomycin + Navitoclax; first compound 0.03162 µM)?
The relative viability was 0.264.

And the relative viability (Bleomycin + Navitoclax; first compound 0.1 µM)?
The relative viability was 0.286.

And the relative viability (Bleomycin + Navitoclax; first compound 0.3162 µM)?
The relative viability was 0.22.

What about the relative viability (Bleomycin + Navitoclax; first compound 1 µM) of the same cell line?
Its relative viability is 0.205.
